Values of other authors in paper PMC10973013, “Translational Potential of a Contrast Agent for FGS Applications in pNETs” (Molecular Imaging and Biology, 2024).

Tested on: lesions in ovarian cancer patients
Settings: cytoreductive surgery, randomized phase 3
From the text: The critical need for accurate tumor detection during oncologic surgery has led to the development of fluorescent contrast agents that target cancerous tissues. This technique, known as fluorescence-guided surgery (FGS), typically involves systemic administration of a fluorescent compound that contains a tumor-targeting moiety and is imaged in the near-infrared spectral range in order to maximize image contrast and diagnostic accuracy. In 2021, the folic acid analog OTL-38 (CYTALUX®) became the first clinically approved FGS agent to target tumors via an active, receptor-mediated process. ...

CC1(C)C(/C=C/C2=C(Oc3ccc(C[C@H](NC(=O)c4ccc(NCc5cnc6nc(N)[nH]c(=O)c6n5)cc4)C(=O)[O-])cc3)C(=C/C=C3\N(CCCCS(=O)(=O)[O-])c4ccc(S(=O)(=O)[O-])cc4C3(C)C)/CCC2)=[N+](CCCCS(=O)(=O)[O-])c2ccc(S(=O)(=O)[O-])cc21.[H+].[H+].[H+].[H+] [OTL-38]
identification of lesions with FGS versus standard-of-care methods: more effectively identified with FGS than with standard-of-care methods
